Where “and” joins values, the source holds several entries; their conditions need not be identical. Equal values may be shown once.
Assay: Stability of the analytes in rat plasma QC samples at different storage conditions
Format: in vitro ADME
Details: for Post-preparation stability (4℃ for 24 h) Measured Conc.: extracted plasma samples in auto sampler rack; for Post-preparation stability (4℃ for 24 h) Measured Conc. / Free-thaw stability (3 free-thaw cycles) Measured Conc. / Long-term stability (-80℃ for 15 d) Measured Conc. / Short-term stability (25℃ for 12 h) Measured Conc.: n=5; for Free-thaw stability, Test Conc., AV / Free-thaw stability, Test Conc. / Post-preparation stability, Test Conc., AV / Post-preparation stability, Test Conc. / Short-term stability, Test Conc., AV / Short-term stability, Test Conc. / Long-term stability, Test Conc., AV / Long-term stability, Test Conc.: plasma; for Free-thaw stability, Test Conc., AV / Free-thaw stability, Test Conc.: 3 free-thaw cycles; for Free-thaw stability, Test Conc., AV / Post-preparation stability, Test Conc., AV / Short-term stability, Test Conc., AV / Long-term stability, Test Conc., AV: AV of 5 replicates; for Free-thaw stability, Test Conc. / Post-preparation stability, Test Conc. / Short-term stability, Test Conc. / Long-term stability, Test Conc.: single replicates NO.1-NO.5, listed as Isoquercitrin (IQ); for Post-preparation stability, Test Conc., AV / Post-preparation stability, Test Conc.: 4℃ for 24 h; for Short-term stability, Test Conc., AV / Short-term stability, Test Conc.: 25℃ for 12 h; for Long-term stability, Test Conc., AV / Long-term stability, Test Conc.: -80℃ for 15 d; for Free-thaw stability (3 free-thaw cycles) Measured Conc. / Long-term stability (-80℃ for 15 d) Measured Conc. / Short-term stability (25℃ for 12 h) Measured Conc.: rat plasma
Protocol: The stabilities of Qr, IQ, and QG in plasma were assessed by analyzing QC samples at different storage conditions. The stabilities of three flavonoids in plasma were studied by analyzing three concentration levels of QC samples (n = 5) at room temperature (25 °C) for 12 h, at long-term storage (−80 °C for 15 days), after three freeze (−80 °C) and thaw (room temperature) cycles, and at auto sampler rack storage (4 °C for 24 h).

[1] = high QC, nominal 8400.0 (Qr), 976.0 (IQ), 10000.0 (QG) ng/mL
[2] = low QC, nominal 65.6 (Qr), 48.8 (IQ), 100.0 (QG) ng/mL
[3] = medium QC, nominal 525.0 (Qr), 244.0 (IQ), 1000.0 (QG) ng/mL

O=c1c(O[C@@H]2O[C@H](CO)[C@@H](O)[C@H](O)[C@H]2O)c(-c2ccc(O)c(O)c2)oc2cc(O)cc(O)c12 [IQ, Isoquercitrin]
Post-preparation stability (4℃ for 24 h) Measured Conc. [1]: 937.6 ± 55.4 ng/mL | Post-preparation stability (4℃ for 24 h) Measured Conc. [2]: 45.3 ± 1.4 ng/mL | Post-preparation stability (4℃ for 24 h) Measured Conc.: 255.6 ± 16.0 ng/mL | Free-thaw stability, Test Conc., AV (nominal Conc. 48.80 ng/mL): 50.35 ng/mL | Free-thaw stability, Test Conc. (nominal Conc. 48.80 ng/mL): 49.95 ng/mL and 49.90 ng/mL and 50.70 ng/mL and 48.08 ng/mL and 53.12 ng/mL | Free-thaw stability, Test Conc., AV (nominal Conc. 244.00 ng/mL): 242.47 ng/mL | Free-thaw stability, Test Conc. (nominal Conc. 244.00 ng/mL): 230.75 ng/mL and 211.89 ng/mL and 256.83 ng/mL and 252.00 ng/mL and 260.86 ng/mL | Free-thaw stability, Test Conc., AV (nominal Conc. 976.00 ng/mL): 1028.98 ng/mL | Free-thaw stability, Test Conc. (nominal Conc. 976.00 ng/mL): 934.23 ng/mL and 1056.62 ng/mL and 1064.04 ng/mL and 1091.46 ng/mL and 998.55 ng/mL | Post-preparation stability, Test Conc., AV (nominal Conc. 48.80 ng/mL): 45.28 ng/mL | Post-preparation stability, Test Conc. (nominal Conc. 48.80 ng/mL): 45.29 ng/mL and 43.89 ng/mL and 47.57 ng/mL and 44.33 ng/mL and 45.34 ng/mL | Post-preparation stability, Test Conc., AV (nominal Conc. 244.00 ng/mL): 255.64 ng/mL | Post-preparation stability, Test Conc. (nominal Conc. 244.00 ng/mL): 246.59 ng/mL and 233.24 ng/mL and 257.98 ng/mL and 268.81 ng/mL and 271.60 ng/mL | Post-preparation stability, Test Conc., AV (nominal Conc. 976.00 ng/mL): 937.62 ng/mL | Post-preparation stability, Test Conc. (nominal Conc. 976.00 ng/mL): 857.22 ng/mL and 1007.33 ng/mL and 922.61 ng/mL and 936.47 ng/mL and 964.48 ng/mL | Short-term stability, Test Conc., AV (nominal Conc. 48.80 ng/mL): 51.25 ng/mL | Short-term stability, Test Conc. (nominal Conc. 48.80 ng/mL): 51.42 ng/mL and 50.11 ng/mL and 53.70 ng/mL and 49.73 ng/mL and 51.28 ng/mL | Short-term stability, Test Conc., AV (nominal Conc. 244.00 ng/mL): 228.97 ng/mL | Short-term stability, Test Conc. (nominal Conc. 244.00 ng/mL): 224.99 ng/mL and 229.24 ng/mL and 227.58 ng/mL and 250.98 ng/mL and 212.08 ng/mL | Short-term stability, Test Conc., AV (nominal Conc. 976.00 ng/mL): 902.68 ng/mL | Short-term stability, Test Conc. (nominal Conc. 976.00 ng/mL): 885.52 ng/mL and 865.13 ng/mL and 936.37 ng/mL and 947.50 ng/mL and 878.89 ng/mL | Long-term stability, Test Conc., AV (nominal Conc. 48.80 ng/mL): 43.53 ng/mL | Long-term stability, Test Conc. (nominal Conc. 48.80 ng/mL): 40.64 ng/mL and 40.98 ng/mL and 46.59 ng/mL and 45.84 ng/mL and 43.59 ng/mL | Long-term stability, Test Conc., AV (nominal Conc. 244.00 ng/mL): 226.97 ng/mL | Long-term stability, Test Conc. (nominal Conc. 244.00 ng/mL): 232.85 ng/mL and 226.55 ng/mL and 237.44 ng/mL and 224.60 ng/mL and 213.40 ng/mL | Long-term stability, Test Conc., AV (nominal Conc. 976.00 ng/mL): 947.77 ng/mL | Long-term stability, Test Conc. (nominal Conc. 976.00 ng/mL): 1047.44 ng/mL and 988.88 ng/mL and 924.76 ng/mL and 931.40 ng/mL and 846.39 ng/mL | Free-thaw stability (3 free-thaw cycles) Measured Conc. [1]: 1029.0 ± 62.9 ng/mL | Long-term stability (-80℃ for 15 d) Measured Conc. [1]: 947.8 ± 75.3 ng/mL | Short-term stability (25℃ for 12 h) Measured Conc. [1]: 902.7 ± 36.8 ng/mL | Free-thaw stability (3 free-thaw cycles) Measured Conc. [2]: 50.4 ± 1.8 ng/mL | Long-term stability (-80℃ for 15 d) Measured Conc. [2]: 43.5 ± 2.7 ng/mL | Short-term stability (25℃ for 12 h) Measured Conc. [2]: 51.3 ± 1.6 ng/mL | Free-thaw stability (3 free-thaw cycles) Measured Conc. [3]: 242.5 ± 20.7 ng/mL | Long-term stability (-80℃ for 15 d) Measured Conc. [3]: 227.0 ± 9.1 ng/mL | Short-term stability (25℃ for 12 h) Measured Conc. [3]: 229.0 ± 14.0 ng/mL
